# How the values were obtained:
# [1] = tested on: C57/BL mouse; test: Sepsis model: murine LPS-d-galactosamine model; type: in vivo; conditions: 200 mg/kg intraperitoneally one hour before induction; prevention of mortality over three days
# Experimental: Sepsis was induced in the C57/BL mouse by the intravenous injection of 20 ng of lipopolysaccharide/animal plus 20 mgs d-galactosamine/animal. Inhibition was measured as the prevention of mortality over a three day period. Compounds were administered intraperitoneally in 10% cremophore/10% ethanol/80% normal saline one hour before induction.
# [2] = tested on: Normal human dermal fibroblasts; test: TNF-α induced apoptosis in primary human fibroblasts; type: cell-based; conditions: for OD 595 nm: 2 ng/ml TNF-α 24 hours, crystal violet
# Text: Description of Table V: The results shown in Table V were obtained using the TNF-α assays performed as described in the protocols entitled “Method for TNF High Throughput Screen” and “Method for VCAM High Throughput Screen”, which are detailed below. These assays measure a cellular response to TNF-α stimulation, and the data published in the table are expressed as percentage inhibitions. Percentage inhibition is computed on a scale of 0 to 100% where 0 percent inhibition means the compound has no effect in the assay (the response is indistinguishable from TNF-α treatment alone), and 100% inhibition means that when the compound is present at the stated concentration, the response in the assay is the same as if TNF-α were not added. These two assays measure two different outcomes of TNF-α treatment, cell death and Vascular Cell Adhesion Molecule (VCAM) expression, and capture two of TNF-α's many biological effects. TNF-α induced apoptosis is a mechanism by which TNF-α production during immune/inflammatory responses can lead to direct cellular and tissue damage. TNF-α VCAM expression in endothelial cells is a response that allows leukocytes to leave the blood and enter a site of immune/inflammatory response. Both of these activities could lead to pathology in immune/inflammatory diseases. In the first column of the table, the percentage inhibition of the TNF-α driven apoptosis assay when the compounds are tested at 1 μM concentration is presented. The second column in the table lists the IC50 for the compound, a standard measure using a dilution series in the assay, and fitting a sigmoidal curve to the resulting dose-response curve. The IC50 is the concentration (derived analytically from the sigmoidal function) at which the compound would inhibit 50% of the response in the assay. The third and fourth column list the corresponding analysis for the TNF-α driven VCAM assay. In Table VI, data corresponding to the data in column 1 of Table V is shown, with human cells replacing the mouse cells used in the high throughput screen. […] As a consequence, the compounds will have use in treating more than one TNF-α mediated condition, and may be selected according to the manner in which the condition manifests. This corresponds to the use of these compounds in the treatment of human disease.
# Normal human dermal fibroblasts were seeded into 96-well plates at 3×10^4 cells/well. Cells were pretreated for 2 hours with […] Actinomycin D and either Compound 44 or DMSO as a vehicle control. Cells were then exposed to 2 ng/ml TNF-α for 24 hours and stained with crystal violet/ethanol. Crystal violet was solubilized with methanol and absorbance at 595 nm was read on a microtiter plate reader.
# [3] = tested on: L929 cells; test: TNF High Throughput Screen (TNF-α driven apoptosis assay); type: cell-based, mouse; conditions: Mus musculus, human TNF-α + actinomycin D, read-out: TNFα IC50
# Outline: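 Mouse L929 cells were pretreated with compound for 2 hours, then given human TNF-α plus actinomycin D (40 μg/ml final) overnight. Surviving cells were stained with crystal violet, solubilised in methanol and read at 595 nm. Values are % inhibition at 1 μM (0 = TNF alone, 100 = no TNF) or IC50 from sigmoidal fits of dilution series.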
# [4] = tested on: male rats; test: Inflammatory Bowel Disease model: rat DNBS distal colitis; type: in vivo; conditions: 100 mg/kg orally, 7 doses
# Experimental: Groups of three male rats weighing 150+/−10 g and fasted for 24 hours were used. Distal colitis was induced by intracolonic instillation of 0.5 ml/rat DNBS (2,4-dinitrobenzene sulfonic acid, 60 mg/ml in ethanol 30%) after which air (2 ml) was gently injected through the cannula to ensure that the solution remains in the colon. A test compound was administered orally 24 and 2 hours before DNBS-instillation and then daily for 5 days in a total of 7 doses. The animals were sacrificed 24 hours after the final dose of test compound administration and each colon was removed and weighed.
# [5] = Pharmacokinetic parameters; type: in vivo; conditions: in vivo
# [6] = tested on: SJL mouse strain; test: Experimental Allergic Encephalitis (murine model of multiple sclerosis); type: in vivo
# Experimental: SJL mouse strain were immunized subcutaneously with proteolipid peptide amino acid residues 139-151 in Complete Freund's Adjuvant. Pertussis toxin was injected intravenously on day 1 and 3 post-induction. Weight loss occurred at day 7 post-immunization with paralysis ensuing between days 9 and 14 post-immunization.
smiles,measurement,setting,value
N#Cc1cccc(C(C(=O)NCC(c2ccccc2)c2ccccc2)N(CCc2c[nH]cn2)C(=O)c2ccccc2C(=O)c2ccccc2)c1 (centres unmarked) [Compound 44],Sepsis: Murine LPS-d-galactosamine model % inhibition,[1],33 +/− 1 @ 200%
same,% Rescue,[2]; 2 μM compound,18.4%
same,OD 595 nm,[2]; 2 μM compound,0.109
same,% Rescue,[2]; 4 μM compound,57.1%
same,OD 595 nm,[2]; 4 μM compound,0.147
same,% Rescue,[2]; 8 μM compound,109.2%
same,OD 595 nm,[2]; 8 μM compound,0.198
same,IC50,[3],410 nM
same,Inflammatory Bowel Disease: Rat DNBS model % inhibition of colonic weight gain,[4],44 +/− 8 @ 100 mg/kg %
same,bioavailability,"[5]; po, species not given",26%
same,half-life,"[5]; unit and species not given, read-out: Pharmacokinetic Parameters t1/2 (converted)",2.3 h
same,% inhibition of disease,"[6]; Induction regimen, 15 mgs/kg/day/i.p. from day 1-21, P = 0.06",44.0%
same,"activity disease severity score (ADSS) at last day of dosing, treated (vs. control)","[6]; Induction regimen, 15 mgs/kg/day/i.p. from day 1-21, control 3.35",1.9/3.35
same,% Survival of treated (vs. % survival of controls),"[6]; Induction regimen, 15 mgs/kg/day/i.p. from day 1-21, controls 50",75 vs. 50%
same,"activity disease severity score (ADSS) at last day of dosing, treated (vs. control)","[6]; Induction regimen, 75 mgs/kg/day/i.p. from day 1-21, control 3.35",0.8/3.35
same,% Survival of treated (vs. % survival of controls),"[6]; Induction regimen, 75 mgs/kg/day/i.p. from day 1-21, controls 50",100 vs. 50%
same,% inhibition of disease,"[6]; Induction regimen, 75 mgs/kg/day/i.p. from day 1-21, p = 0.001",75.7%
same,"activity disease severity score (ADSS) at last day of dosing, treated (vs. control)","[6]; Oral therapeutic regimen, 75 mgs/kg/day/i.p. from day 7-28, control 4.4",2.2/4.4
same,% Survival of treated (vs. % survival of controls),"[6]; Oral therapeutic regimen, 75 mgs/kg/day/i.p. from day 7-28, controls 20",89 vs. 20%
same,% inhibition of disease,"[6]; Oral therapeutic regimen, 75 mgs/kg/day/i.p. from day 7-28, p = 0.002",50%
same,"activity disease severity score (ADSS) at last day of dosing, treated (vs. control)","[6]; Therapeutic regimen, 15 mgs/kg/day/i.p. from day 7-21, control 4.6",2.6/4.6
same,% Survival of treated (vs. % survival of controls),"[6]; Therapeutic regimen, 15 mgs/kg/day/i.p. from day 7-21, controls 11",70 vs. 11%
same,% inhibition of disease,"[6]; Therapeutic regimen, 15 mgs/kg/day/i.p. from day 7-21, p = 0.08",43.5%
same,"activity disease severity score (ADSS) at last day of dosing, treated (vs. control)","[6]; Therapeutic regimen, 75 mgs/kg/day/i.p. from day 7-21, control 4.6",1.1/4.6
same,% Survival of treated (vs. % survival of controls),"[6]; Therapeutic regimen, 75 mgs/kg/day/i.p. from day 7-21, controls 11",100 vs. 11%
same,% inhibition of disease,"[6]; Therapeutic regimen, 75 mgs/kg/day/i.p. from day 7-21, p = 0.001",76.1%
